{"source": "patent EP4566597A1", "about": "“STATINS USEFUL IN THE TREATMENT OF SPLACHNIC VASCULAR DYSFUNCTIONS” (Hospital Clínic de Barcelona, priority 2023, dated 2025)", "key": {"PVECs": {"system": "PVECs", "assay": "qPCR of EndMT markers in PVECs treated in vitro with Simvastatin", "assay_type": "cell-based, human", "conditions": "5 µM Simvastatin sodium salt, 24 h", "experimental": "For portal vein endothelia cell (PVEC) isolation, excess surrounding fat tissue was meticulously removed from the vein using sterile scissors, and any residual blood was washed away with DPBS. Subsequently, the tubular vein was opened to expose the inner part of the vein facing upward. Trypsin EDTA 0,05% (Gibco, #25300054) was then added on the upper surface and incubated for 5 minutes at 37°C. EGM-2 medium was then added abundantly over the tissue and a cell scrapper (TPP-Reactiva, #99002) was used to carefully scrap the surface of the inner wall several times, in order to detach the endothelial cells from the vein wall. The EGM-2 medium with cells in suspension was then centrifuged at 300 g for 5 minutes and pellet resuspended in 2 ml of fresh EGM-2. Cells were then seeded in a well from a 6-well plate pre-coated with human plasma fibronectin at a concentration of 1 µg/cm^2 (Sigma, #F0895), and fresh media changed every other day until confluence. On average, confluence was reached 10 days after isolation.\nIn order to isolate PVECs from other cell types that were also scrapped during the initial tissue processing, cells were detached, stained with anti-CD31-FITC (BD Bioscience, #555445) and CD144 -BV786 (BD Bioscience, #565672) antibodies and FACS sorted in a FACS Aria II cell sorter (BD Biosciences) according to manufacturer's instructions. PVECs were selected as CD31^+ CD144^+ cells and seeded back to either a 6-well plate, T25 or T75 flasks, depending on the cell amount obtained. Once ECs reached confluency, a third of the cells were collected in RLT buffer (Qiagen) for subsequent RNA isolation (passage 1), a third was used for flow cytometry purity analysis and the final one third was passaged into a new 6-well plate. From this moment onwards, […] portal vein endothelial cells (PVECs) were expanded at a split ratio of 1:5 until senescence. At every passage, a fraction of the cells was cryopreserved for future experiments, while the rest was used for flow cytometry purity check, RLT collection and tube assays. Endothelial phenotype of PVECs was routinely monitored by cell morphology, flow cytometry, immunofluorescence and tube formation capacity.\n(§1) PVECs were seeded in 6-well plates in triplicates (for RNA collection) and in 60mm dishes (for protein collection) at a concentration of 6x10^4 cells/ml and grow for 24 h to obtain 70% confluency. PVECs from CT (n=3), CH (n=7) and CH-PVT (n=6) were then treated in vitro with 5 µM Simvastatin sodium salt (Sigma, #567022) for another 24 h and collected in either RLT or RIPA buffer for further analysis by means of quantitative real-time polymerase chain reaction (qPCR) or Western blotting, respectively. Its effect on mesenchymal markers and EndMT promoters, including TFs and all the molecules involved in EndMT initiation or progression previously described, was studied.\nTotal RNA was isolated by RNeasy Micro and Mini kit (Qiagen) as stated above. First-strand cDNA was synthesized using the High Capacity cDNA Reverse Transcription Kit (Applied, Thermo Fisher, #4368814) according to the manufacturer's instructions. Quantitative real-time PCR (qPCR) was performed using PowerUp™ sybr® Green Master Mix (Applied Biosystems, #A25776) with technical duplicates using an AB1 Prism® 7900 HT Cycler (Applied Biosystems). PCR cycle parameters were as follows: 95 °C for 10' followed by 40 cycles at 95 °C for 15\" and 60 °C for 1'. Results were obtained with the Sequence Detection System 3.2 software (Applied Biosystems) and further analyzed by the 2-ΔΔCt method. GAPDH was used as a loading control. Results are shown as fold-change."}, "phosphor-SMAD2": {"system": "phosphor-SMAD2", "assay": "Western blot of PVECs treated in vitro with simvastatin", "assay_type": "cell-based, human", "conditions": "FIG. 10", "experimental": "as §1\nProteins were extracted with RIPA buffer complemented with Halt Protease & Phosphatase inhibitors (ThermoFisher) and total protein estimated using Bradford's Reagent (Bio-Rad) following manufacturer's instructions. […] Extracted proteins were analyzed by western blot. […] Images were acquired with a LAS-4000 apparatus (Fujifilm, TDI, Alcobendas, Spain) and protein expression was determined by densitometric analysis using the Image Studio Lite software (LI-COR). Results are expressed as relative densitometric values normalized to endogenous control β-actin. […]"}, "[1]": {"conditions": "PVECs from CT, CH and CH-PVT, qPCR, FIG. 9"}, "[2]": {"conditions": "PVEC from cirrhotic patients with or without PVT, qPCR"}}, "data": [{"smiles": "CCC(C)(C)C(=O)O[C@H]1C[C@@H](C)C=C2C=C[C@H](C)[C@H](CC[C@@H]3C[C@@H](O)CC(=O)O3)[C@H]21", "note": "[Simvastatin, [(1S,3R,7S,8S,8aR)-8-[2-[(2R,4R)-4-hydroxy-6-oxooxan-2-yl]ethyl]-3,7-dimethyl-1,2,3,7,8,8a-hexahydronaphthalen-1-yl] 2,2-dimethylbutanoate]", "values": [{"measurement": "endothelial markers expression (Cd31)", "setting": "PVECs; [1]", "value": "increasing"}, {"measurement": "endothelial markers expression (NOs3)", "setting": "PVECs; [1]", "value": "increasing"}, {"measurement": "expression of mesenchymal markers (AIFM2)", "setting": "PVECs; [2]", "value": "reduced"}, {"measurement": "expression of mesenchymal markers (CDH2)", "setting": "PVECs; [2]", "value": "reduced"}, {"measurement": "expression of the adhesion molecule VCAM1", "setting": "PVECs; [2]", "value": "reduced"}, {"measurement": "EndMT occurring in PVEC", "setting": "PVECs; overall finding, FIG. 9", "value": "can ameliorate"}, {"measurement": "GTPase (Rac2) expression", "setting": "PVECs; qPCR", "value": "decreasing"}, {"measurement": "Serpine1 expression", "setting": "PVECs; qPCR", "value": "decreasing"}, {"measurement": "expression of transcription factor Snail1", "setting": "PVECs; qPCR", "value": "reduced"}, {"measurement": "phosphor-SMAD2 protein levels", "setting": "phosphor-SMAD2", "value": "capable of reducing"}]}]}
